“And” between values parts separate entries of the source, which are not always exact repeats. Equal values may be shown once. Read-outs that look alike come from different tables or passages of the source.

We go through eight compounds from patent publication US5726162A (priority 1996, dated 1998).

Experiment [1] deals with Magnaporthe grisea (Pyricularia oryzae). The experiment is described as follows: whole plant or invertebrate. The following applies: Pyricularia oryzae, 144 h, read-out: % Control RB. It is filed as in vivo, Magnaporthe grisea (Pyricularia oryzae) on M201 rice plants.
Experiment [2] deals with Pyricularia oryzae. The class given is in vivo, Pyricularia oryzae on M-201 rice plants. The following applies: protectant.
The subject of the next experiment is Candida albicans. The experiment is described as follows: Activity against Candida albicans in microtiter plates, % control of growth. It is filed as cell-based. How it is done: The activity against Candida albicans was determined using the following test protocol.
Conidia and mycelium from the Candida albicans culture maintained on potato dextrose agar plates were lightly scraped off into yeast extract-dextrose broth (YDB) so that mostly conidia was used as inoculum. The conidial suspsension was strained through a double layer of cheesecloth to remove mycelial clumps. The inoculum mixture was placed in microtiter plates using a 12-tipped pipet. 175 microliters were placed in each well of the microliter plates and the plates were placed in the refrigerator overnight. There were two replications.
The compounds to be tested were dissolved in 1:1 acetone:methanol and 100 ppm of the compound solution were placed in a well of the prepared microtiter plates.
The microtiter plates were incubated for 7 days at room temperature after addition of the compounds. Percent control was visually estimated using a microtiter plate reading mirror. Readings were made at 1, 2, 3, and/or 7 days after treatment.

In the next experiment the test system is fungal inoculum. Description: organism not typed. The class given is cell-based. The following applies: read-out: % growth inhibition.
The subject of experiment [3] is Thanatephorus cucumeris (Rhizoctonia solani). The experiment is described as follows: In vivo test b) Rice Sheath Blight (RSB), 24 hour preapplication protectant, % control. The following applies: 200 ppm, protectant, read-out: % Control RSB. How it is done:
Compounds were tested at 200 ppm as a twenty-four hour preapplication protectant test prior to inoculation.
b) Rice Sheath Blight (RSB)
Thanatephorus cucumeris (Rhizoctonia solani) mycelia were grown for six days in potato dextrose broth in shake culture. Drained mycelial mats were blended with an approximately equal weight of rice flour and five parts water. This slurry was dispensed onto the soil surface of pots containing rice seedlings previously treated with experimental compounds. The plants were placed in a mist chamber at 25°-28° C. for 48 hours. Following two more days at 25° C. and 70-90% relative humidity the plants were evaluated for percent disease control compared to check plants.

The test system of the next experiment is fungal mycelium. The experiment is described as follows: organism not typed. The class given is cell-based. The following applies: read-out: % growth inhibition.
The test system of a further experiment is Septoria nodorum. Description: Wheat Septoria preventative experiments (single fungicides and combinations). The class given is in vivo, Septoria nodorum on Fielder wheat plants. As to the method:
(§1) The experiments below were performed using the relevant following procedures.
(§2) Experimental compounds and commercial fungicides were tank mixed and mechanically sprayed at varying concentrations in a 1:1:2 mixture of acetone, methanol and water. Protective or preventive sprays were applied one day before spore inoculation. Curative or post-infection sprays were applied one day after spore inoculation. The spraying system utilized delivered a 200 ppm dose at the rate of 1458 liters per hectare. The following details were applicable for the specified diseases:
Fielder wheat plants were inoculated with Septoria nodorum conidia. The spore concentration was approximately 3,000,000 conidia per milliliter in water. An atomizer was used to apply twenty milliliters of inoculum to twenty plants per flat. The plants were placed in a humidity cabinet at 100% relative humidity for 72 hours and then placed in a greenhouse. Evaluations were made 10 days after inoculation.
(§3) "Disease control" was recorded as percent control based on a comparison of the unsprayed, inoculated controls and the treated, inoculated plants.

For another experiment, the system named is Boytrytis cinerea. Description: Tomato Botrytis protective experiments (single fungicides and combinations). It is filed as in vivo, Boytrytis cinerea on Pixie tomato plants. As to the method: as §1, §2
Three week-old "Pixie" tomato plants were inoculated with Boytrytis cinerea conidia. The plants were held in dim light for two days prior to inoculation. The spore concentration was 500,000 to 650,000 conidia per milliliter of dextrose solution. An atomizer was used to apply the conidial suspension in a heavy coating to near runoff to both the upper and lower leaf surfaces and to the plant stem. The plants were kept in a continuous mist chamber with a day-night cycle and at 20 degrees centigrade for 5 days.
as §3

Experiment [4] relates to Pyricularia oryzae. The class given is in vivo, Pyricularia oryzae on M-201 rice plants. The following applies: curative.
The mark [5] stands for this setting: 24 h, 1 day after treatment, read-out: % control of growth +1.
[6] abbreviates: 48 h, 2 days after treatment, read-out: % control of growth +2.
Setting [7] is: 72 h, 3 days after treatment, read-out: % control of growth +3.
The mark [8] stands for this setting: 168 h, 7 days after treatment, read-out: % control of growth +7.

Regarding `CCC#CCN1N=C(c2ccc(Cl)cc2)CCC1=O` [Compound 12, 6-(4-chlorophenyl)-2-(2'-pentynyl)-4,5-dihydropyridazinone], the pest or weed control at 200 ppm stood at 99% in experiment [1] and 50% in experiment [3]. Moreover, the “% Disease Control, Observed” value was 0% with Pyricularia oryzae [2] (12 ppm alone), 50% with Pyricularia oryzae [2] (50 ppm alone) and 50% in the experiment on Pyricularia oryzae [2] (200 ppm alone). Also, the inhibition of growth at 100 ppm in the experiment on Candida albicans (setting [5]), in the experiment on Candida albicans (setting [6]), in the experiment on Candida albicans (setting [7]) and in the experiment with Candida albicans (setting [8]) was 100% each time. For the same compound, the inhibition (in general, the percentage by which the read-out fell short of the control) at 1 ppm with fungal inoculum came out at 96%.

Consider `CCC#CCn1nc(-c2ccc(Cl)cc2)ccc1=O` [Compound 109, 6-(4-chlorophenyl)-2-(2'-pentynyl)pyridazinone], for which the results for the pest or weed control at 200 ppm in [1] and in [3] were 99% and 100%, respectively. Moreover, the inhibition at 1 ppm with fungal mycelium amounted to 100%. The “% Disease Control, Observed” value in the experiment on Pyricularia oryzae [2] (12 ppm alone) was 0%; in the experiment on Pyricularia oryzae [2] (50 ppm alone) it was 0%; with Pyricularia oryzae [2] (200 ppm alone) it was 99% and 80%; in the experiment on Septoria nodorum (12 ppm alone), 0%; with Septoria nodorum (50 ppm alone) it was 50%; in the experiment on Septoria nodorum (200 ppm alone) it was 50%. For the same compound, the “% Disease Control, Observed” value stood at 0% in the experiment on Boytrytis cinerea (50 ppm alone); 75% in the experiment with Boytrytis cinerea (200 ppm alone); 0% in the experiment on Pyricularia oryzae [4] (12 ppm alone); 50% with Pyricularia oryzae [4] (50 ppm alone); 80% with Pyricularia oryzae [4] (200 ppm alone). In addition, the inhibition of growth at 100 ppm in the experiment on Candida albicans (setting [5]), in the experiment on Candida albicans (setting [6]), with Candida albicans (setting [7]) and with Candida albicans (setting [8]) was 100% throughout.

As to `N#Cc1c(Cl)c(Cl)c(Cl)c(C#N)c1Cl` [chlorothalonil], the “% Disease Control, Observed” value is reported as 0% in the experiment on Pyricularia oryzae [2] (12 ppm alone), 0% in the experiment on Pyricularia oryzae [2] (50 ppm alone) and 99% in the experiment on Pyricularia oryzae [2] (200 ppm alone).

Take `N#CC(CCc1ccc(Cl)cc1)(Cn1cncn1)c1ccccc1` (stereo not drawn) [fenbuconazole, alpha-[2-(4-chlorophenyl)ethyl]-alpha-phenyl-1H-1,2,4-triazole-1-propanenitrile]: the “% Disease Control, Observed” value in the experiment on Boytrytis cinerea (6 ppm alone) is recorded as 50%; in the experiment on Boytrytis cinerea (25 ppm alone) it was 75%; with Boytrytis cinerea (50 ppm alone), 75%.

As to `CC(C)NC(=O)N1CC(=O)N(c2cc(Cl)cc(Cl)c2)C1=O` [iprodione, reference compound], the “% Disease Control, Observed” value in the experiment with Septoria nodorum (12 ppm alone) amounted to 0%; with Septoria nodorum (50 ppm alone), 0%; in the experiment with Septoria nodorum (200 ppm alone), 50%.

`C=CCOC1=NS(=O)(=O)c2ccccc21` [probenazole]: the “% Disease Control, Observed” value with Pyricularia oryzae [2] (12 ppm alone), in the experiment with Pyricularia oryzae [2] (50 ppm alone) and in the experiment on Pyricularia oryzae [2] (200 ppm alone) was 0% each time.

Consider `O=C1CCc2cccc3c2N1CC3` [pyroquilon], for which the figures for the “% Disease Control, Observed” value in the experiment on Pyricularia oryzae [2] (12 ppm alone), in the experiment on Pyricularia oryzae [2] (50 ppm alone) and in the experiment with Pyricularia oryzae [2] (200 ppm alone) were 0%, 0% and 85%, respectively.

With mancozeb [reference compound], the “% Disease Control, Observed” value with Pyricularia oryzae [2] (50 ppm alone) is recorded as 75%; in the experiment on Pyricularia oryzae [2] (200 ppm alone), 99%; with Pyricularia oryzae [4] (50 ppm alone), 0%; with Pyricularia oryzae [4] (200 ppm alone), 0%.
